Where a SMILES comes first, the peptide text is derived from it. Where no end group is shown, it is not given here. The star is where a group is joined. Cbz = O=C(OCc1ccccc1)*
B1: rh Wnt3a: recombinant human (rh) Wnt3a ligand (protein, UniProt P56704 19-352, looked up)
Protein Wnt-3a: SYPIWWSLAVGPQYSSLGSQPILCASIPGLVPKQLRFCRNYVEIMPSVAEGIKIGIQECQHQFRGRRWNCTTVHDSLAIFGPVLDKATRESAFVHAIASAGVAFAVTRSCAEGTAAICGCSSRHQGSPGKGWKWGGCSEDIEFGGMVSREFADARENRPDARSAMNRHNNEAGRQAIASHMHLKCKCHGLSGSCEVKTCWWSQPDFRAIGDFLKDKYDSASEMVVEKHRESRGWVETLRPRYTYFKVPTERDLVYYEASPNFCEPNPETGSFGTRDRTCNVSSHGIDGCDLLCCGRGHNARAERRREKCRCVFHWCCYVSCQECTRVYDVHTCK

Columns and labels:
[1] = system: β-catenin promoter in HCT116 cells; experiment: ChIP: occupancy of SMAR1, HDAC5 and H3K9 Ac at β-catenin promoter; assay type: cell-based; conditions: Wnt3a CM stimulation, mean ± SD, n = 3
Description: HCT116 cells were transfected with GFP-control, GFP-SMAR1, GFP-sh-SMAR1 or HDAC5 siRNA plasmids. ChIP was performed using Millipore reagents supplied according to the manufacturer's protocol. The protein-DNA complex were immunoprecipitated overnight at 4° C using SMAR1 (Bethyl), HDAC5 (Cell Signaling), H3K9Ac (Cell Signaling) or IgG (Santa Cruz Biotechnology) antibodies (1 μg each). PCR was performed with the primers flanking the binding sites of SMAR1 in β-catenin promoter. […]. The PCR conditions were 95° C for 1 minute, 55° C for 1 minute and 72° C for 1 minute for 35 cycles. The PCR amplicons obtained were run in 1% Agarose (Sigma) gel and documented.

[2] = system: β-catenin expression in HCT116 cells; experiment: Western blot: β-catenin expression; assay type: cell-based; conditions: Wnt3a CM or rh Wnt3a ligand (200 ng/mL)
Description: (§1) HCT116, SW480, SW620, HCT15 and HT29 cells (obtained from NCCS, Pune) were cultured in DMEM medium with 10% Fetal Bovine Serum (Gibco) and 100 Units of Penicillin Streptomycin antibiotics (Gibco). HCT116 stable cells were generated using GFP-SMAR1, GFP-control and GFP-sh-SMAR1 plasmids. si-HDAC5 plasmid was purchased from Santa Cruz Biotechnology. Conditioned medium were prepared using L cells and L-Wnt3a cells (kind gift from Jomon Joseph, NCCS Pune). After culturing for 7 days supernatant was collected and filtered through 0.22 micron syringe filter. Cells were treated with peptides (provided by Amrita Therapeutics) for 48 hours. Lipofectamine 2000 (Invitrogen) was used for transfection purposes.
Proteins were extracted using lysis buffer (50 mM Tris-Cl pH 7.5, 5 mM EDTA, 0.5% NP40, 50 mM NaF, 1 mM DTT, 0.2 mM sodium orthovanadate, 0.5 mM PMSF, 150 mM NaCl and 1X Protease Inhibitor cocktail). 40 μg proteins were transferred to PVDF membranes by Western blotting technique and blots were blocked with 5% BSA and incubated in primary antibodies. Blots were then incubated with HRP conjugated secondary antibodies and developed in X-ray films. For IP, proteins extracted were pre-cleared with Protein A/G beads (Invitrogen) and immunoprecipitated overnight with desired antibodies. […]

[3] = system: SMAR1 expression in HCT116 cells and an array of CRC cell lines; experiment: Western blot / confocal: SMAR1 protein expression after peptide treatment; assay type: cell-based; conditions: Wnt3a CM or rh Wnt3a ligand (200 ng/mL), LiCl 30 mM for 6 hrs, MG132 10 μM with or without Wnt3a CM
Description: as §1
Proteins were extracted using lysis buffer (50 mM Tris-Cl pH 7.5, 5 mM EDTA, 0.5% NP40, 50 mM NaF, 1 mM DTT, 0.2 mM sodium orthovanadate, 0.5 mM PMSF, 150 mM NaCl and 1X Protease Inhibitor cocktail). 40 μg proteins were transferred to PVDF membranes by Western blotting technique and blots were blocked with 5% BSA and incubated in primary antibodies. Blots were then incubated with HRP conjugated secondary antibodies and developed in X-ray films. For IP, proteins extracted were pre-cleared with Protein A/G beads (Invitrogen) and immunoprecipitated overnight with desired antibodies. Protein A/G beads were used to pull-down the protein-antibody complex and western blot was performed to check the interaction.
For confocal studies cells were fixed with 4% para-formaldehyde solution and permeabilized using 0.1% TritonX-100 solution. Cells were incubated with 1:250 dilution SMAR1 (Bethyl) antibody for 2 hours and later with 1:250 dilution Cy3 (Life Technologies) antibody for 1 hour. Coverslips containing cells were mounted using DAPI containing mounting medium (Fluoroshield with DAPI, Sigma). Human colon paraffinized tissue sections were de-paraffinized by heating in a microwave oven and later washed with xylene and alcohol. Antigen retrieval was performed and washed with PBS for further staining with 1:250 SMAR1 (Bethyl) and 1:250 β-catenin (BD Bioscience) antibodies. […]

HCT116 cells = conditions: 48 h
[4] = NOD-SCID mice, 25 mg/kg body weight intra-peritoneally on alternate days for 21 days, throughout the course of treatment
[5] = system: β-catenin promoter (pEGFP1-β-catenin) in HCT116 cells; experiment: Flow cytometry of pEGFP1-β-catenin GFP expression; assay type: cell-based; conditions: pEGFP1-β-catenin transfected HCT116 cells, 200 ng/mL rh Wnt3a ligand; n = 3, SD
Excerpt: Genomic DNA was isolated from HCT116 cells and amplified with primers flanking binding sites of SMAR1 in β-catenin promoter. […]. The amplicon was ligated into pEGFP1 vector using T4 DNA ligase (NEB) after restriction digestion with XhoI and KpnI enzymes (NEB). Plasmids were transformed into DH5α E. coli competent cells and positive clones were identified after restriction digestion with XhoI and KpnI. The cloned β-catenin promoter was christened as pEGFP1-β-catenin.
HCT116 cells were co-transfected with FLAG-SMAR1 and pEGFP1-β-catenin plasmids or treated with rh Wnt3a ligand after transfection with pEGFP1-β-catenin. For flow cytometry analysis HCT116 cells were trypsinized using Trypsin-EDTA (Gibco) and washed thrice with PBS buffer. Cells were then passed through cell strainer (BD Falcon) and collected in flow cytometry tubes. GFP expressions were quantitated by subjecting 1 × 10^4 cells to BD FACSCalibur flow cytometry. FL1 channel was used to sort and quantify the GFP cells. Using CellQuest Pro software the histogram plots were derived and the GFP percentages were calculated. The graphs corresponding to the GFP percentage were generated using SigmaPlot software.

Molecule | SMAR1 protein level after treatment [3] | IC50 value (MTT assay) (HCT116 cells) [µg/mL] | adverse effects [4] | other results
Wnt3a | significant downregulation of SMAR1 | – | – | increased H3K9 Ac occupancy in β-catenin promoter [1]: 4.72 fold; reduced occupancy of HDAC5 in β-catenin promoter [1]: 4.77 fold; reduced occupancy of SMAR1 in β-catenin promoter [1]: 4.54 fold; β-catenin levels after Wnt3a stimulation [2]: concomitant rise in the β-catenin levels
NAIRGSVTPAVSQFN [AT-01D] | – | 9.90 | no observable adverse effects | –
[Cl-].[Li+] [LiCl] | failed to downregulate SMAR1 | – | – | –
ATATVNAIRGSVTPAVSQFN [AT-01C] | – | 10 | no observable adverse effects | –
CC(C)C[C@@H](C=O)NC(=O)[C@H](CC(C)C)NC(=O)[C@H](CC(C)C)NC(=O)OCc1ccccc1 [MG132] (Cbz-Leu-Leu-Leu-aldehyde) | SMAR1 protein stability was observed | – | – | –
B1 | – | – | – | increase in GFP expression (β-catenin promoter activity) [5]: about 45%
